The subject of one assay is cucumber. The assay is described as follows: combined application of HYTLO1, HA and 6PP on cucumber seed germination and growth promotion. The assay is classed as in vivo. Also on record: Root length, increase % vs. Control / Plant fresh weight, increase % vs. Control / Plant dry weight, increase % vs. Control / plant height, increase % vs. Control: concentration or dose not given beside the values. The note with it: for Plant dry weight / Root length (cm) / Plant fresh weight / plant height (cm): 30 days after seed coating; for Plant dry weight: SD +− 1.3 g; for Root length (cm): SD +− 2.1 cm; for Plant fresh weight: SD +− 2.5 g; for plant height (cm): drench 10^−7M 6PP and HA, 10^−8M HYTLO1, half or one third dose in combinations, SD +− 2.5 cm; for Seed germination (24 h): coated cucumber seeds on humid filter paper, SD +− 9%. Here is the method: Tested metabolites include 6PP and Harzianic Acid, and experiments were performed on seed germination, stem or root elongation as well fresh/dry weight. The results shown in Table 1 were obtained by using cucumber seeds coated with the solutions of the tested compounds, that were then transferred in Petri dishes and left to germinate on filter humid paper. First seed germination was evaluated, then the germinated seedlings were transplanted into pots containing sterilised soil. Other two treatments with the purified molecules were performed at 10 days interval, by drenching the soil with the solutions at the final concentrations of 10^−7M for 6PP and HA, and 10^−8M for HYTLO1. In two-compounds application, half dose of each molecule was used. In three-compound applications, one third of the dose of each molecules was used. Each treatments consisted of 8 plants. Results were collected 30 days after seed coating. Control was produced by adding water instead of the molecule solutions. The effect of the minimal amounts of solvents eventually contained in HA and 6PP solution was preliminary tested, with no differences observed in comparison to water control. The results shown in Table 1 that all of the three tested molecules have a significant beneficial effect on seed germination and plant growth, and that they can be synergistically combined for enhanced effectiveness.

Another assay concerns Lotus japonicus. The assay is described as follows: Rhizobium lotii on Lotus japonicus in vitro system, plant growth and nodule density. The note with it: HYTLO1 0.07 μM, 6PP 0.002 μM, 4 weeks after seeding; for plant growth promotion effect of Rhizobia on Lotus japonicus: HA 0.001 μM in MS media; for nodule formation (number of nodules per cm of root): HA 0.001 μM, with R. loti. It is filed as in vivo. Here is the method: Wt+Rhz=treatment with R. loti, Wt-Rhz without R. loti. (D) Growth measured after 4 weeks, in the absence (cont) or presence of Rhizoba R. loti ((+) Rhiz). The purified molecules were added to the sterile MS media and poured into Petri dishes. Data were recorded 4 weeks after seeding of L. japonicus.
FIG. 18. […] (HYT=HYTLO1 at 0.07 μM, 6PP at 0.002 μM, HA=Harzianic Acid at 0.001 μM). Wt=control with R. loti without metabolites. The purified molecules were added to the sterile MS media and poured into Petri dishes. Average number of nodules per cm of root are indicated. Data were recorded 4 weeks after seeding of L. japonicus.
In order to test the effect of HYTLO1, as well as of the secondary metabolites HA and 6PP on the growth promotion activity of Rhizobia, such as Rhizobium sp., on legumimosae plants, we used a standard Rhizobium lotii on Lotus japonicus in vitro system (Barbulova et al., 2005, Functional Plant Biology, 32:529-536). Plant growth and nodule density on the roots were scored four weeks after seeding by comparing untreated controls and the various treatments.

Turning to `CCCCCc1cccc(=O)o1` [6PP, 6-Pentyl-α-pyrone], in the assay with cucumber, the “Plant dry weight” value was determined as 7.1 g, the “Root length (cm)” value amounted to 17.6 cm, the “Plant fresh weight” value came to 22.04 g and the “plant height (cm)” value came to 21.8 cm. In the assay with cucumber, the “Seed germination (24 h)” value was determined as 75%. In the assay on cucumber (vs water control), the “Seed germination (24 h), increase % vs. Control” value is listed as “+25%”. In the assay on cucumber (vs water control, 30 days), the “Plant dry weight, increase % vs. Control” value came out at 42.3%; the “Plant fresh weight, increase % vs. Control” value amounted to 25.9%; the “Root length, increase % vs. Control” value is 31.1%. In addition, in the assay on Lotus japonicus, the “plant growth promotion effect of Rhizobia on Lotus japonicus” value is recorded as “Enhancement of the effect of Rhizobium lotii” and the “nodule formation (number of nodules per cm of root)” value was “Enhancement of nodule formation”.

With `CCC/C=C/C=C/C(O)=C1/C(=O)C(CC(O)(C(=O)O)C(C)C)N(C)C1=O` (centres unmarked) [HA, Harzianic acid], in the assay with cucumber, the “Plant dry weight” value was determined as 7.6 g, the “Root length (cm)” value amounted to 13.6 cm, the “Plant fresh weight” value came out at 23.36 g and the “plant height (cm)” value is on record as 27.4 cm. The “Seed germination (24 h)” value with cucumber turned out to be 75%. Also, in the assay on cucumber (vs water control), the “Seed germination (24 h), increase % vs. Control” value is reported as “+25%”. Besides, in the assay with cucumber (vs water control, 30 days), the “Plant dry weight, increase % vs. Control” value is given as 46.1%; the “Plant fresh weight, increase % vs. Control” value came out at 30.1%; the “Root length, increase % vs. Control” value is listed as 10.7%; the “plant height, increase % vs. Control” value is recorded as 8.4%. Also, in the assay on Lotus japonicus, the “plant growth promotion effect of Rhizobia on Lotus japonicus” value is listed as “Enhancement of the effect of Rhizobium lotii” and the “nodule formation (number of nodules per cm of root)” value is “Enhancement of nodule formation”.

The record behind these values is patent US10875898B2, “Bioactive protein, use thereof and method for its production” (Koppert B.V., priority 2014, dated 2020).
